Values after ≈ are worked out from the molar mass of the structure shown.
Legend:
Type in all cases: functional
Haemophilus influenzae [1] = experiment: Antimicrobial activity against beta-lactamase negative ampicillin-resistant Haemophilus influenzae by broth microdilution method in presence of beta-lactamase inhibitor clavulanic acid
Haemophilus influenzae [2] = experiment: Antimicrobial activity against beta-lactamase negative ampicillin-resistant Haemophilus influenzae assessed as susceptible isolates by broth microdilution method in presence of beta-lactamase inhibitor clavulanic acid
Haemophilus influenzae [3] = experiment: Antimicrobial activity against beta-lactamase positive (amoxicillin)clavulanate-resistant Haemophilus influenzae by broth microdilution method in presence of beta-lactamase inhibitor clavulanic acid
Haemophilus influenzae [4] = experiment: Antimicrobial activity against beta-lactamase positive (amoxicillin)clavulanate-resistant Haemophilus influenzae assessed as susceptible isolates by broth microdilution method in presence of beta-lactamase inhibitor clavulanic acid
Haemophilus influenzae [5] = experiment: Antimicrobial activity against beta-lactamase negative ampicillin-susceptible Haemophilus influenzae harboring […] mutant gene by broth microdilution method in presence of beta-lactamase inhibitor clavulanic acid
Haemophilus influenzae [6] = experiment: Antimicrobial activity against beta-lactamase negative ampicillin-susceptible Haemophilus influenzae harboring […] mutant gene assessed as susceptible isolates by broth microdilution method in presence of beta-lactamase inhibitor clavulanic acid
Haemophilus influenzae [7] = experiment: Antimicrobial activity against beta-lactamase-positive ampicillin-resistant Haemophilus influenzae harboring fst1 mutant gene by broth microdilution method in presence of beta-lactamase inhibitor clavulanic acid
Haemophilus influenzae [8] = experiment: Antimicrobial activity against beta-lactamase-positive ampicillin-resistant Haemophilus influenzae harboring […] mutant gene assessed as susceptible isolates by broth microdilution method in presence of beta-lactamase inhibitor clavulanic acid
Haemophilus influenzae [9] = experiment: Antimicrobial activity against beta-lactamase negative ampicillin-resistant -Haemophilus influenzae by broth microdilution method
Haemophilus influenzae [10] = experiment: Antimicrobial activity against beta-lactamase negative ampicillin-resistant Haemophilus influenzae by broth microdilution method in presence of beta-lactamase inhibitor Sulbactam
Haemophilus influenzae [11] = experiment: Antimicrobial activity against beta-lactamase negative ampicillin-resistant Haemophilus influenzae assessed as susceptible isolates by broth microdilution method
Haemophilus influenzae [12] = experiment: Antimicrobial activity against beta-lactamase negative ampicillin-resistant Haemophilus influenzae assessed as susceptible isolates by broth microdilution method in presence of beta-lactamase inhibitor Sulbactam
Haemophilus influenzae [13] = experiment: Antimicrobial activity against beta-lactamase positive (amoxicillin)clavulanate-resistant Haemophilus influenzae by broth microdilution method
Haemophilus influenzae [14] = experiment: Antimicrobial activity against beta-lactamase positive (amoxicillin)clavulanate-resistant Haemophilus influenzae by broth microdilution method in presence of beta-lactamase inhibitor Sulbactam
Haemophilus influenzae [15] = experiment: Antimicrobial activity against beta-lactamase positive (amoxicillin)clavulanate-resistant Haemophilus influenzae assessed as susceptible isolates by broth microdilution method
Haemophilus influenzae [16] = experiment: Antimicrobial activity against beta-lactamase positive (amoxicillin)clavulanate-resistant Haemophilus influenzae assessed as susceptible isolates by broth microdilution method in presence of beta-lactamase inhibitor Sulbactam
Haemophilus influenzae [17] = experiment: Antimicrobial activity against beta-lactamase negative ampicillin-susceptible Haemophilus influenzae harboring […] mutant gene by broth microdilution method
Haemophilus influenzae [18] = experiment: Antimicrobial activity against beta-lactamase negative ampicillin-susceptible Haemophilus influenzae harboring […] mutant gene by broth microdilution method in presence of beta-lactamase inhibitor Sulbactam
Haemophilus influenzae [19] = experiment: Antimicrobial activity against beta-lactamase negative ampicillin-susceptible Haemophilus influenzae harboring […] mutant gene assessed as susceptible isolates by broth microdilution method
Haemophilus influenzae [20] = experiment: Antimicrobial activity against beta-lactamase negative ampicillin-susceptible Haemophilus influenzae harboring […] mutant gene assessed as susceptible isolates by broth microdilution method in presence of beta-lactamase inhibitor Sulbactam
Haemophilus influenzae [21] = experiment: Antimicrobial activity against beta-lactamase-positive ampicillin-resistant Haemophilus influenzae harboring fst1 mutant gene by broth microdilution method
Haemophilus influenzae [22] = experiment: Antimicrobial activity against beta-lactamase-positive ampicillin-resistant Haemophilus influenzae harboring fst1 mutant gene by broth microdilution method in presence of beta-lactamase inhibitor Sulbactam
Haemophilus influenzae [23] = experiment: Antimicrobial activity against beta-lactamase-positive ampicillin-resistant Haemophilus influenzae harboring fst1 mutant gene assessed as susceptible isolates by broth microdilution method
Haemophilus influenzae [24] = experiment: Antimicrobial activity against beta-lactamase-positive ampicillin-resistant Haemophilus influenzae harboring […] mutant gene assessed as susceptible isolates by broth microdilution method in presence of beta-lactamase inhibitor Sulbactam

CC1(C)S[C@@H]2[C@H](NC(=O)[C@H](N)c3ccc(O)cc3)C(=O)N2[C@H]1C(=O)O [AMOXICILLIN]
MIC50 (Haemophilus influenzae [1]): 8 µg/mL | MIC90 (Haemophilus influenzae [1]): 8 µg/mL | Activity (Haemophilus influenzae [2]): 27% | MIC (Haemophilus influenzae [3]): 8 µg/mL | MIC50 (Haemophilus influenzae [3]): 8 µg/mL | MIC90 (Haemophilus influenzae [3]): 8 µg/mL | Activity (Haemophilus influenzae [4]): 0% | MIC50 (Haemophilus influenzae [5]): 0.5 µg/mL | MIC90 (Haemophilus influenzae [5]): 1 µg/mL | Activity (Haemophilus influenzae [6]): 100% | MIC (Haemophilus influenzae [7]): 0.5 µg/mL | MIC50 (Haemophilus influenzae [7]): 0.5 µg/mL | MIC90 (Haemophilus influenzae [7]): 1 µg/mL | Activity (Haemophilus influenzae [8]): 100%

CC1(C)S[C@@H]2[C@H](NC(=O)[C@H](N)c3ccccc3)C(=O)N2[C@H]1C(=O)O [AMPICILLIN]
MIC50 (Haemophilus influenzae [9]): 4 µg/mL (≈ 11.4 µM) | MIC90 (Haemophilus influenzae [9]): ≥ 8 µg/mL | MIC50 (Haemophilus influenzae [10]): 4 µg/mL | MIC90 (Haemophilus influenzae [10]): 8 µg/mL | Activity (Haemophilus influenzae [11]): 0% | Activity (Haemophilus influenzae [12]): 22% | MIC (Haemophilus influenzae [13]): ≥ 8 µg/mL | MIC50 (Haemophilus influenzae [13]): ≥ 8 µg/mL | MIC90 (Haemophilus influenzae [13]): ≥ 8 µg/mL | MIC (Haemophilus influenzae [14]): 8 µg/mL | MIC50 (Haemophilus influenzae [14]): 8 µg/mL | MIC90 (Haemophilus influenzae [14]): 16 µg/mL | Activity (Haemophilus influenzae [15]): 0% | Activity (Haemophilus influenzae [16]): 0% | MIC50 (Haemophilus influenzae [17]): 0.25 µg/mL (≈ 0.715 µM) | MIC90 (Haemophilus influenzae [17]): 0.5 µg/mL (≈ 1.43 µM) | MIC50 (Haemophilus influenzae [18]): 0.5 µg/mL | MIC90 (Haemophilus influenzae [18]): 0.5 µg/mL | Activity (Haemophilus influenzae [19]): 100% | Activity (Haemophilus influenzae [20]): 100% | MIC50 (Haemophilus influenzae [21]): ≥ 8 µg/mL | MIC90 (Haemophilus influenzae [21]): ≥ 8 µg/mL | MIC (Haemophilus influenzae [22]): 0.5 µg/mL | MIC50 (Haemophilus influenzae [22]): 0.25 µg/mL | MIC90 (Haemophilus influenzae [22]): 0.5 µg/mL | Activity (Haemophilus influenzae [23]): 0% | Activity (Haemophilus influenzae [24]): 75%

CO/N=C(\C(=O)N[C@@H]1C(=O)N2C(C(=O)O)=C(CSc3nc(=O)c(O)nn3C)CS[C@H]12)c1csc(N)n1 [CEFTRIAXONE]
MIC50 (Haemophilus influenzae [9]): 0.25 µg/mL (≈ 0.451 µM) | MIC90 (Haemophilus influenzae [9]): 0.25 µg/mL (≈ 0.451 µM) | Activity (Haemophilus influenzae [11]): 100% | MIC50 (Haemophilus influenzae [13]): 0.12 µg/mL | MIC90 (Haemophilus influenzae [13]): 0.25 µg/mL | Activity (Haemophilus influenzae [15]): 100%

Source: ChEMBL document CHEMBL1649234, “Antimicrobial activities of piperacillin-tazobactam against Haemophilus influenzae isolates, including beta-lactamase-negative ampicillin-resistant and beta-lactamase-positive amoxicillin-clavulanate-resistant isolates, and mutations in their quinolone resistance-determining regions” (2009)
